Laboratory results: US9593097B2, “Axl inhibitors” (Pfizer Inc., priority 2014, dated 2017)
Like-named read-outs stand apart in the source and are kept apart here.

How the values were obtained:
[1] = molecular target: Axl phosphorylation in 293MSR-AxlWT6 cells (Homo sapiens (Human), UniProt P30530); experiment: Cellular Axl phosphorylation ELISA assay (Gas6-stimulated 293MSR-AxlWT6 cells); assay type: cell-based; settings: read-out: CELL AXL IC50
Description: Cellular Axl Phosphorylation ELISA Assay
After 6-7 hrs in tissue culture incubator at 37° C. 5% CO2, medium was removed, serum-free medium was added (with 0.04% bovine serum albumin) and plates were returned to incubator where they remained overnight. […] Media was then removed and lysis buffer was added to wells and shaken at 4° C. for 30 min to generate protein lysates. Subsequently, phosphorylation of Axl was assessed by a sandwich ELISA method using a DuoSet IC Human Phospho-Axl ELISA assay kit (R&D System), an immobilized mouse anti-human Axl antibody and an anti-phospho-tyrosine-HRP antibody as a detection antibody. Antibody-coated plates were (a) incubated in presence of protein lysates at room temperature for 2 hrs, (b) washed seven times in 0.1% Tween 20 in PBS, (c) incubated with secondary antibody (a horseradish peroxidase-conjugated […]) for 2 hrs, (d) washed seven times again, (e) TMB peroxidase substrate (Bio-Rad) was added to initiate a colorimetric reaction and stopped by adding 0.2 N H2SO4, and (f) measured at OD 450 nm using a spectrophotometer. IC50 values were calculated by concentration-response curve fitting using a four-parameter analytic method and reported in μM.
For Table 4B, IC50 values were calculated by concentration-response curve fitting using a four-parameter analytic method and reported in nM.

[2] = molecular target: Human wild-type receptor tyrosine kinase protein Axl (residues 505-811) (Homo sapiens (Human), UniProt P30530); settings: read-out: ENZYME AXL KI; Table 4B
Human wild-type receptor tyrosine kinase protein Axl (residues 505-811), sequence (P30530 505-811): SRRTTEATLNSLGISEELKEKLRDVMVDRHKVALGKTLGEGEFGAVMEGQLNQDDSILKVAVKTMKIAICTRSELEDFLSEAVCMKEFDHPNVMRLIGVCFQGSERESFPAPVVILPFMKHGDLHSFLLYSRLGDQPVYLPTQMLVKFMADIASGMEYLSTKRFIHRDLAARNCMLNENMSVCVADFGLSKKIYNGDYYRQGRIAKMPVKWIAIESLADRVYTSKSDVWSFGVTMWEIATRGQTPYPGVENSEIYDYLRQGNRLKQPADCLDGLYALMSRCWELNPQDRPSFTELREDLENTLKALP

Axl phosphorylation in 293MSR-AxlWT6 cells, sequence (P30530 26-894): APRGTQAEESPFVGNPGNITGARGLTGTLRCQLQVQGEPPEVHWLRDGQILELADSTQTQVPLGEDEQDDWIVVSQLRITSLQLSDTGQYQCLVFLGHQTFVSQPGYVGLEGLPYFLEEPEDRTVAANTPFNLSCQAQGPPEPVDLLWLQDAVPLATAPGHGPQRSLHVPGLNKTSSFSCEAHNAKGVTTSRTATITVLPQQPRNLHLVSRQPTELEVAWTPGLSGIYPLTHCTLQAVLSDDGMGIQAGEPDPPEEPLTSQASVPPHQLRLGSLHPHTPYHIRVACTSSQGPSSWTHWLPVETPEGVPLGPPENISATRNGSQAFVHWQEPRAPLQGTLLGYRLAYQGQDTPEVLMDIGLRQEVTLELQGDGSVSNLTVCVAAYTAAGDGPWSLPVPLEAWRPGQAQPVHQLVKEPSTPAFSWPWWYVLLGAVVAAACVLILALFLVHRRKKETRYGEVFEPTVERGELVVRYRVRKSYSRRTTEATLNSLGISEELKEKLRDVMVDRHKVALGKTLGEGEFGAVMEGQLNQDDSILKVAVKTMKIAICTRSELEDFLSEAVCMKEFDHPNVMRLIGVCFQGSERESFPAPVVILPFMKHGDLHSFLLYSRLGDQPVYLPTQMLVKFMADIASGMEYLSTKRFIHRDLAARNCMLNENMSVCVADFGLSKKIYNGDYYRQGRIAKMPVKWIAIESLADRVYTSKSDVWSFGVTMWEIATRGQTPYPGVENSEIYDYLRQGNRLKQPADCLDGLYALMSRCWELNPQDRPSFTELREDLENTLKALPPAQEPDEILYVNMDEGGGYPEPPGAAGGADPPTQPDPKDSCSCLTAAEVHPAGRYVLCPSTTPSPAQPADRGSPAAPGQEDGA

Compound | IC50 ([1]; Table 4A) [nM] | IC50 ([1]; Table 4B) [nM] | Ki [2] [nM]
COc1ccnc2[nH]cc(C3CCN(c4cc(C(=O)N[C@H](C)CO)nc(OC[C@H]5CCCO5)n4)CC3)c12 [Example 459, N-[(2R)-1-hydroxypropan-2-yl]-6-[4-(4-methoxy-1H-pyrrolo[2,3-b]pyridin-3-yl)piperidin-1-yl]-2-[(2R)-tetrahydrofuran-2-ylmethoxy]pyrimidine-4-carboxamide] | – | 0.272 | < 0.013
COC[C@@H](C)Oc1nc(C(=O)NC2CCC2)nc(N2CCC(c3c[nH]c4nccc(OC)c34)CC2)n1 [Example 502, N-cyclobutyl-4-{[(2R)-1-methoxypropan-2-yl]oxy}-6-[4-(4-methoxy-1H-pyrrolo[2,3-b]pyridin-3-yl)piperidin-1-yl]-1,3,5-triazine-2-carboxamide] | – | 0.132 | < 0.082
C[C@H](NC(=O)c1nc(OCC2CC2)nc(N2CCC(COc3cc(-c4cn(C)cn4)cnc3N)CC2)n1)C(F)(F)F [Example 391, 4-[4-({[2-amino-5-(1-methyl-1H-imidazol-4-yl)pyridin-3-yl]oxy}methyl)piperidin-1-yl]-6-(cyclopropylmethoxy)-N-[(2S)-1,1,1-trifluoropropan-2-yl]-1,3,5-triazine-2-carboxamide] | – | 0.143 | < 0.013
COc1ccnc2[nH]nc(C3CCN(c4nc(OC[C@H]5C[C@H]5C#N)nc(C(=O)NC5CCC5)n4)CC3)c12 [Example 501, 4-{[(1S,2R)-2-cyanocyclopropyl]methoxy}-N-cyclobutyl-6-[4-(4-methoxy-1H-pyrazolo[3,4-b]pyridin-3-yl)piperidin-1-yl]-1,3,5-triazine-2-carboxamide] | – | 1.07 | < 0.412
COc1ccnc2[nH]nc(C3CCN(c4cc(C(=O)N[C@H](C)CO)nc(OCc5ccccc5)n4)CC3)c12 [Example 415, 2-(benzyloxy)-N-[(2R)-1-hydroxypropan-2-yl]-6-[4-(4-methoxy-1H-pyrazolo[3,4-b]pyridin-3-yl)piperidin-1-yl]pyrimidine-4-carboxamide] | – | 0.052 | < 0.013
COc1ccnc2[nH]cc(C3CCN(c4cc(C(=O)N[C@H](C)CO)nc(OCC5(C#N)CC5)n4)CC3)c12 [Example 387, 2-[(1-cyanocyclopropyl)methoxy]-N-[(2R)-1-hydroxypropan-2-yl]-6-[4-(4-methoxy-1H-pyrrolo[2,3-b]pyridin-3-yl)piperidin-1-yl]pyrimidine-4-carboxamide] | – | 0.152 | < 0.018
C[C@@H](NC(=O)c1cc(N2CCC(c3ccc(N)c(C(N)=O)n3)CC2)nc(OCC2CC2(F)F)n1)C(C)(C)O (single isomer, unassigned) [Example 15] | 8.36 | – | –
COC[C@@H](C)Oc1nc(C(=O)NCC(F)(F)F)cc(N2CCC(c3ccc(N)c(C(N)=O)n3)CC2)n1 [Example 6, 6-[4-(5-amino-6-carbamoylpyridin-2-yl)piperidin-1-yl]-2-{[(2R)-1-methoxypropan-2-yl]oxy}-N-(2,2,2-trifluoroethyl) pyrimidine-4-carboxamide] | 29.1 | – | –
COC[C@@H](C)Oc1nc(C(=O)NC2CCC2)cc(N2CCC(c3cccc(C(N)=O)n3)CC2)n1 [Example 11, 6-[4-(6-carbamoylpyridin-2-yl)piperidin-1-yl]-N-cyclobutyl-2-{[(2R)-1-methoxypropan-2-yl]oxy}pyrimidine-4-carboxamide] | 10.2 | – | –
COC[C@@H](C)Oc1nc(C(=O)NC23CC(C2)C3)nc(N2CCC(c3c[nH]c4nccc(OC)c34)CC2)n1 (single isomer, unassigned) [Example 505] | – | 0.409 | < 0.082
COc1ccnc2[nH]cc(C3CCN(c4nc(OC[C@H]5C[C@H]5C#N)nc(C(=O)NC56CC(C5)C6)n4)CC3)c12 (single isomer, unassigned) [Example 504] | – | 0.125 | < 0.082
CCOc1nc(C(=O)NC2CCC2)cc(N2CCC(c3nc(C(N)=O)ccc3OCCN(C)C)CC2)n1 [Example 2, 6-(4-{6-carbamoyl-3-[2-(dimethylamino)ethoxy]pyridin-2-yl}piperidin-1-yl)-N-cyclobutyl-2-ethoxypyrimidine-4-carboxamide] | 246 | – | –
COC[C@@H](C)Oc1nc(C(=O)NC23CC(C2)C3)cc(N2CCC(COc3nc(C)cnc3N)CC2)n1 [Example 24, 6-(4-{[(3-amino-6-methylpyrazin-2-yl)oxy]methyl}piperidin-1-yl)-N-(bicyclo[1.1.1]pent-1-yl)-2-{[(2R)-1-methoxypropan-2-yl]oxy}pyrimidine-4-carboxamide] | 1.92 | – | –
CN(C)CCOc1ccc(C(N)=O)nc1C1CCN(c2cc(C(=O)NC3CCC3)nc(OC[C@H]3C[C@H]3C#N)n2)CC1 [Example 18, 6-(4-{6-carbamoyl-3-[2-(dimethylamino)ethoxy]pyridin-2-yl}piperidin-1-yl)-2-{[(1S,2R)-2-cyanocyclopropyl]methoxy}-N-cyclobutyl-pyrimidine-4-carboxamide] | 64.9 | – | –

Continued, in another order:

IC50 ([1]; Table 4A) [nM] | Compound | IC50 ([1]; Table 4B) [nM] | Ki [2] [nM]
83.8 | CN(C)CCOc1ccc(C(N)=O)nc1C1CCN(c2cc(C(=O)NC3CCC3)nc(OCC3CC3(F)F)n2)CC1 (centres unmarked) [Example 39, 6-(4-{6-carbamoyl-3-[2-(dimethylamino)ethoxy]pyridin-2-yl}piperidin-1-yl)-N-cyclobutyl-2-[(2,2-difluoro-cyclopropyl)methoxy] pyrimidine-4-carboxamide] | – | –
5.27 | COC[C@@H](C)Oc1nc(C(=O)NC23CC(C2)C3)nc(N2CCC(c3ccc(N)c(C(N)=O)n3)CC2)n1 [Example 54, 4-[4-(5-amino-6-carbamoylpyridin-2-yl)piperidin-1-yl]-N-(bicyclo[1.1.1]pent-1-yl)-6-{[(2R)-1-methoxypropan-2-yl]oxy}-1,3,5-triazine-2-carboxamide] | – | –
231 | N#CC1(COc2nc(C(=O)NCC(F)(F)F)nc(N3CCC(c4c[nH]c5nccnc45)CC3)n2)CC1 [Example 132, 4-(4-(5H-pyrrolo[2,3-b]pyrazin-7-yl)piperidin-1-yl)-6-((1-cyanocyclopropyl)methoxy)-N-(2,2,2-trifluoroethyl)-1,3,5-triazine-2-carboxamide] | – | –
455 | N#C[C@@H]1C[C@@H]1COc1nc(C(=O)NC(CCO)C(F)(F)F)cc(N2CCC(COc3cncnc3N)CC2)n1 (stereo partly drawn) [Example 63, 6-(4-{[(4-aminopyrimidin-5-yl)oxy]methyl}piperidin-1-yl)-2-{[(1S,2R)-2-cyanocyclopropyl]methoxy}-N-(1,1,1-trifluoro-4-hydroxybutan-2-yl)pyrimidine-4-carboxamide] | – | –
285 | CCNC(=O)c1nc(OCC2(C#N)CC2)nc(N2CCC(c3n[nH]c4ncccc34)CC2)n1 [Example 133, 4-(4-(1H-pyrazolo[3,4-b]pyridin-3-yl)piperidin-1-yl)-6-((1-cyanocyclopropyl)methoxy)-N-ethyl-1,3,5-triazine-2-carboxamide] | – | –
0.36 | C[C@H](CO)NC(=O)c1cc(N2CCC(COc3cc(-c4cn(C)cn4)cnc3N)CC2)nc(OCC2CC2)n1 [Example 384, 6-[4-({[2-amino-5-(1-methyl-1H-imidazol-4-yl)pyridin-3-yl]oxy}methyl)piperidin-1-yl]-2-(cyclopropylmethoxy)-N-[(2R)-1-hydroxypropan-2-yl]pyrimidine-4-carboxamide] | – | –
23.8 | COC[C@@H](C)Oc1nc(C(=O)NCC2CC2)nc(N2CCC(c3ccc(N)c(C(N)=O)n3)CC2)n1 [Example 58, 4-[4-(5-amino-6-carbamoylpyridin-2-yl)piperidin-1-yl]-N-(cyclo-propylmethyl)-6-{[(2R)-1-methoxypropan-2-yl]oxy}-1,3,5-triazine-2-carboxamide] | – | –
7.89 | C[C@H](CO)NC(=O)c1cc(N2CCC(c3c[nH]c4ncccc34)CC2)nc(OC[C@H]2C[C@H]2C#N)n1 [Example 51, 2-{[(1S,2R)-2-cyanocyclopropyl]methoxy}-N-[(2R)-1-hydroxypropan-2-yl]-6-[4-(1H-pyrrolo[2,3-b]pyridin-3-yl)piperidin-1-yl]pyrimidine-4-carboxamide] | – | –
242 | CN(C)CCOc1ccc(C(N)=O)nc1C1CCN(c2cc(C(=O)NC3CCC3)nc(OC[C@@H]3C[C@@H]3C#N)n2)CC1 [Example 37, 6-(4-{6-carbamoyl-3-[2-(dimethylamino)ethoxy]pyridin-2-yl}piperidin-1-yl)-2-{[(1R,2S)-2-cyanocyclopropyl]methoxy}-N-cyclobutyl-pyrimidine-4-carboxamide] | – | –
5.21 | N#C[C@@H]1C[C@@H]1COc1nc(C(=O)NC23CC(C2)C3)cc(N2CCC(c3n[nH]c4ncc(OCCO)cc34)CC2)n1 [Example 81, N-(bicyclo[1.1.1]pent-1-yl)-2-{[(1S,2R)-2-cyanocyclopropyl]methoxy}-6-{4-[5-(2-hydroxyethoxy)-1H-pyrazolo[3,4-b]pyridin-3-yl]piperidin-1-yl}pyrimidine-4-carboxamide] | – | –
